Data as given in publication PMC5164969 (Bioorganic & medicinal chemistry, 2016).
Converted amounts (≈) assume the structure as drawn.

Legend:
[1] = tested on: P. aeruginosa ATCC 27853; assay type: cell-based; conditions: strain I (Pae); for development of resistance (passage after which resistance developed): 15 serial passages
[2] = tested on: K. pneumoniae ATCC 27736; test: Antibacterial MIC; assay type: cell-based; conditions: Klebsiella pneumoniae, ATCC27736
[3] = tested on: panel of Gram-positive, Gram-negative and mycobacterial strains; test: Antibacterial MIC, summary over the panel of bacterial strains; assay type: cell-based; conditions: all bacterial strains tested
[4] = tested on: L. monocytogenes ATCC 19115; assay type: cell-based, Listeria monocytogenes; conditions: strain B (Lmo), 15 serial passages
[5] = tested on: MRSA; assay type: cell-based, Staphylococcus aureus; conditions: strain C (MRSA), 15 serial passages
[6] = tested on: L. monocytogenes ATCC 19115; test: Antibacterial MIC; assay type: cell-based; conditions: Listeria monocytogenes, ATCC19115
[7] = tested on: VRE; assay type: cell-based, enterococcus; conditions: strain D (VRE), 15 serial passages
[8] = tested on: E. coli MC1061; test: Antibacterial MIC; assay type: cell-based; conditions: Escherichia coli
[9] = tested on: methicillin-resistant Staphylococcus aureus (MRSA); test: Antibacterial MIC; assay type: cell-based
[10] = tested on: C. albicans ATCC 64124; test: Antifungal MIC; assay type: cell-based; conditions: Candida albicans, ATCC64124
[11] = tested on: C. albicans ATCC 90819; test: Antifungal MIC; assay type: cell-based; conditions: Candida albicans, ATCC90819
[12] = Mammalian cell cytotoxicity, summary over both cell lines; assay type: cell-based; conditions: human, A549 cells and BEAS-2B cells
[13] = tested on: B. subtilis 168; test: Antibacterial MIC; assay type: cell-based; conditions: Bacillus subtilis
[14] = tested on: E. cloacae ATCC 13047; test: Antibacterial MIC; assay type: cell-based; conditions: Enterobacter cloacae, ATCC13047
[15] = tested on: C. albicans ATCC 10231; assay type: cell-based, Candida albicans; conditions: C. albicans ATCC 10231, repeated treatments with sub-MIC drug concentrations
[16] = tested on: C. albicans ATCC 10231; test: Intracellular ROS production, DCFH-DA fluorescence assay; assay type: cell-based, Candida albicans; conditions: 1 h at 35 °C, DCFH-DA staining
[17] = target: hERG channel (Homo sapiens, UniProt Q12809); assay type: binding; conditions: class by IC50
Chain of hERG channel (Q12809 whole entry): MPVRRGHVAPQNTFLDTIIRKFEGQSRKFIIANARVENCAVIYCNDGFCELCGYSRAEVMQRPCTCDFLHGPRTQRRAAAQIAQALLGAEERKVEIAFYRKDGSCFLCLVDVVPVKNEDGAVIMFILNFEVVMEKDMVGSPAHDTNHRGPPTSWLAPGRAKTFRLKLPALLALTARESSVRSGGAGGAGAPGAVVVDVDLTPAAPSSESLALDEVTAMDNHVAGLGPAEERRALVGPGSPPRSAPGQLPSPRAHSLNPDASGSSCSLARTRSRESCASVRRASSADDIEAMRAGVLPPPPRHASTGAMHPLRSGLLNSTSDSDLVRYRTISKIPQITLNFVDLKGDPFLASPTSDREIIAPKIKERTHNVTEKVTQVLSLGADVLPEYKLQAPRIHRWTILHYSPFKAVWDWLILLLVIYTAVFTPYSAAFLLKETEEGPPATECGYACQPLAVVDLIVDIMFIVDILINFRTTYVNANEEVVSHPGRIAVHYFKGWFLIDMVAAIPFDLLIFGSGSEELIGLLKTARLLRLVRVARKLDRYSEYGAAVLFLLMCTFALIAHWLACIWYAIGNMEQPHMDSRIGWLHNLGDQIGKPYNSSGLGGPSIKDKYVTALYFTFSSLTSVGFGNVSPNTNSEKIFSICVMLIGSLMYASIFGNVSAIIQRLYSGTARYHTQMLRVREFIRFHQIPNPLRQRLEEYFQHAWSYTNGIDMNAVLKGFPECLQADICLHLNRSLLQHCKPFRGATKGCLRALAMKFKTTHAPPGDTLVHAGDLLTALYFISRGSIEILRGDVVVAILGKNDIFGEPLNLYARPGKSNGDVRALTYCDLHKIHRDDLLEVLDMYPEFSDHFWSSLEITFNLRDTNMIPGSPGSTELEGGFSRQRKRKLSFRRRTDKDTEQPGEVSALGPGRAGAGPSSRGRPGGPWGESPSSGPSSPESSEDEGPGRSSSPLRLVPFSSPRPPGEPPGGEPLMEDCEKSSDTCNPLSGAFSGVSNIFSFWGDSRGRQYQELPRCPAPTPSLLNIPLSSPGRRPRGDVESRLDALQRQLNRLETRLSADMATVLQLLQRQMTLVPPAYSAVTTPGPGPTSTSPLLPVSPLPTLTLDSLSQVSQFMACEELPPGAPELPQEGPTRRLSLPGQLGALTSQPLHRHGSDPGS

[18] = tested on: vancomycin-resistant enterococcus (VRE); test: Antibacterial MIC; assay type: cell-based
[19] = tested on: P. aeruginosa ATCC 27853; test: Antibacterial MIC; assay type: cell-based; conditions: Pseudomonas aeruginosa, ATCC27853
[20] = tested on: seven Candida albicans strains; test: Antifungal MIC, summary over the panel of seven strains; assay type: cell-based; conditions: most of the fungal strains tested / overall

For `NCC[C@H](O)C(=O)N[C@@H]1C[C@H](N)[C@@H](O[C@H]2O[C@H](CN)[C@@H](O)[C@H](O)[C@H]2O)[C@H](O)[C@H]1O[C@H]1O[C@H](CO)[C@@H](O)[C@H](N)[C@H]1O` [AMK, amikacin, reference compound], the “development of resistance (passage after which resistance developed)” value (from here on “development of resistance”) [1] was 5 passages, the MIC [2] was 24.5 µg/mL (≈ 41.8 µM) and the “MIC, range over bacterial strains tested” value [3] was 3.9 to 125 µM. The “development of resistance” value [4] was 15 passages, the “development of resistance” value [5] was 12 passages and the MIC [6] was 3 µg/mL (≈ 5.12 µM). For the same compound, the “development of resistance” value [7] was 3 passages, the MIC [8] was 24.5 µg/mL (≈ 41.8 µM) and the MIC [9] was 24.5 µg/mL (≈ 41.8 µM).
For `CC1(C)S[C@@H]2[C@H](NC(=O)[C@H](N)c3ccccc3)C(=O)N2[C@H]1C(=O)O` [AMP, ampicillin, reference compound], the “MIC, range over bacterial strains tested” value [3] was ≥ 250 µM and the MIC [8] was > 92.8 µg/mL.
With `C[C@@H]1[C@H](O)[C@@H](C)/C=C/C=C/C=C/C=C/C=C/C=C/C=C/[C@H](O[C@@H]2O[C@H](C)[C@@H](O)[C@H](N)[C@@H]2O)C[C@@H]2O[C@](O)(C[C@@H](O)C[C@@H](O)[C@H](O)CC[C@@H](O)C[C@@H](O)CC(=O)O[C@H]1C)C[C@H](O)[C@H]2C(=O)O` [AmB, amphotericin B] the MIC [10] was 2 to 3.9 µg/mL (≈ 2.16 to 4.22 µM) and the MIC [11] was 2 µg/mL (≈ 2.16 µM).
With `Cl.Cl.N=C(N)N/N=C/c1ccc(-c2ccc(/C=N/NC(=N)N)cc2)cc1` [Compound 3A] the MIC [8] was > 198 µg/mL.
In the case of `Cl.Cl.N=C(N)N/N=C/c1ccc(-c2cccc(/C=N/NC(=N)N)c2)cc1` [Compound 3B], the IC50 [12] was 4.4 to 13.9 µg/mL and the MIC [8] was > 198 µg/mL.
Work on `C/C(=N\NC(=N)N)c1ccc(-c2ccc(/C(C)=N/NC(=N)N)cc2)cc1.Cl.Cl` [Compound 4A] yielded an MIC [8] of 26.5 µg/mL.
For `C/C(=N\NC(=N)N)c1ccc(Cc2ccc(/C(C)=N/NC(=N)N)cc2)cc1.Cl.Cl` [Compound 4C], the MIC [8] was > 219 µg/mL.
With `C/C(=N\NC(=N)N)c1ccc(CCc2ccc(/C(C)=N/NC(=N)N)cc2)cc1.Cl.Cl` [Compound 4D] the “increase in MIC values” ([1]; after 15 serial passages at sub-inhibitory concentrations) was 4 fold and the MIC [8] was > 226 µg/mL.
With `C/C(=N\NC(=N)N)c1ccc(Oc2ccc(/C(C)=N/NC(=N)N)cc2)cc1.Cl.Cl` [Compound 4E] the MIC [13] was 54.9 µg/mL, the MIC [8] was 54.9 µg/mL and the MIC [9] was 54.9 µg/mL.
For `C/C(=N\NC(=N)N)c1ccc2c(c1)Cc1cc(/C(C)=N/NC(=N)N)ccc1-2.Cl.Cl` [Compound 4F], the “development of resistance” value [1] was “did not develop resistance”, the MIC [14] was 218 µg/mL and the “development of resistance” value [4] was “did not develop resistance”. The “development of resistance” value [5] was “did not develop resistance”, the “development of drug resistance” value [15] was “did not to develop drug resistance” and the “intracellular ROS production” value ([16]; 1× and 2× MIC) was “increased intracellular ROS production”. For the same compound, the “development of resistance” value [7] was “did not develop resistance”, the MIC [8] was 218 µg/mL and the “affinity for / interaction with hERG (class)” value (“affinity for / interaction” below) [17] was “moderate (IC50 values in the range of 1-10 μM are considered to have moderate affinity)”.
For `C/C(=N\NC(=N)N)c1ccc(/C(C)=N/NC(=N)N)cc1.Cl.Cl` [Compound 4G], the MIC [8] was > 173 µg/mL.
For `C/C(=N\NC(=N)N)c1cccc(/C(C)=N/NC(=N)N)c1.Cl.Cl` [Compound 4H], the MIC [8] was > 173 µg/mL.
With `Cl.N=C(N)N/N=C/c1ccc(-c2ccc(/C=N/Nc3ccccc3Cl)cc2)cc1` [Compound 7Aa] the “development of resistance” value [1] was “twelve”, the MIC [18] was 0.9 µg/mL and the MIC [2] was > 215 µg/mL. For the same compound, the MIC [14] was > 215 µg/mL, the MIC [13] was > 215 µg/mL and the “development of resistance” value [4] was “did not develop resistance”. For the same compound, the MIC [19] was > 215 µg/mL, the “development of resistance” value [5] was “twelve” and the “development of drug resistance” value [15] was “did not to develop drug resistance”. The MIC [6] was 0.4 to 0.9 µg/mL, the “intracellular ROS production” value ([16]; 1× and 2× MIC) was “increased intracellular ROS production” and the “development of resistance” value [7] was “did not develop resistance”. The MIC [8] was > 215 µg/mL, the MIC [9] was 0.9 µg/mL and the “affinity for / interaction” value [17] was “moderate (IC50 values in the range of 1-10 μM are considered to have moderate affinity)”.
In the case of `Cl.N=C(N)N/N=C/c1ccc(-c2ccc(/C=N/Nc3ccccc3Br)cc2)cc1` [Compound 7Ab], the MIC [8] was > 235 µg/mL.
For `Cl.N=C(N)N/N=C/c1ccc(-c2ccc(/C=N/Nc3ccc(Cl)cc3)cc2)cc1` [Compound 7Ad], the IC50 [12] was 4.4 to 13.9 µg/mL and the MIC [8] was > 214 µg/mL.
`Cl.N#Cc1ccc(N/N=C/c2ccc(-c3ccc(/C=N/NC(=N)N)cc3)cc2)cc1` [Compound 7Ae] gave an MIC [8] of 26.1 to 52.2 µg/mL.
For `Cl.N=C(N)N/N=C/c1ccc(-c2ccc(/C=N/Nc3ccc(F)cc3F)cc2)cc1` [Compound 7Af], the IC50 [12] was 4.4 to 13.9 µg/mL, the “antifungal activity (class)” value [20] was “excellent (excellent (MIC = 0.5-3.9 μg/mL))” and the MIC [8] was > 214 µg/mL. The “affinity for / interaction” value [17] was “moderate (IC50 values in the range of 1-10 μM are considered to have moderate affinity)”.
With `Cl.N=C(N)N/N=C/c1ccc(-c2ccc(/C=N/Nc3ccc(Cl)cc3Cl)cc2)cc1` [Compound 7Ag] the MIC [8] was > 231 µg/mL.
Compound `C/C(=N\NC(=N)N)c1ccc(-c2ccc(/C(C)=N/Nc3ccccc3Cl)cc2)cc1.Cl` [Compound 8Aa] has an MIC [14] of 213 µg/mL, an MIC [19] of 213 µg/mL and an MIC [8] of 213 µg/mL.
For `OO` [Compound H2O2, H2O2, reference compound], the “intracellular ROS production” value ([16]; positive control at 1 mM) was “induced ROS production”.
With `CC1COc2c(N3CCN(C)CC3)c(F)cc3c(=O)c(C(=O)O)cn1c23` (stereo not shown) [OFX, ofloxacin, reference compound] the “MIC, range over bacterial strains tested” value [3] was ≤0.5 to 31.3 µM and the MIC [8] was 1.4 to 2.8 µg/mL (≈ 3.87 to 7.75 µM).
